{
  "source": "patent US7037962B2",
  "about": "“Composition and process for enhancing bio-mass production in greenhouses” (Ciba Specialty Chemicals Corp., priority 2002, dated 2006)",
  "system": "Carnation",
  "test": "Growth of carnation in greenhouses covered with the film",
  "format": "in vivo",
  "details": "1% compound 100 in Film A versus Film B",
  "method": "A three layer LDPE/EVA industrial film is prepared by blow molding having the following structure: 200μ thickness, 50μ EVA 5%, 100μ EVA 14% and 50μ EVA 5%. […] Agricultural Tests Two cultivars, namely ‘Jack’ and ‘Samuela’, have been grown under two greenhouses one with film A and the other with film B. The cultivation started on the 18 Sep. 2001 and harvesting started on the 3, Oct. 2001. The cultivation conditions are the standard conditions used in the region.",
  "data": [
    {"smiles": "CN(C)c1ccc(C=C2C(=O)NC(=O)NC2=O)cc1", "note": "[compound 100, condensation product of 4-dimethylaminobenzaldehyde and barbituric acid]", "values": [
      {"measurement": "effect on the production and quality of carnation", "value": "evident"}
    ]}
  ]
}
